The target in assay [1] is T1, SMARCA2-HiBiT HeLa cells (protein which is expressed from the SMARCA2 gene) (Homo sapiens, UniProt P51531).
T1 construct: protein which is expressed from the SMARCA2 and SMARCA4 genes; host or cells: HeLa (SMARCA2-HiBiT engineered line)
Description: SMARCA2 degradation assay (HiBiT-fusion HeLa cell line, 24 h, luminescence). The format is cell-based. The method in brief:
(§1)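 HeLa cells carrying HiBiT-tagged SMARCA2 or SMARCA4 were seeded at 8,000 cells/well, allowed to attach overnight at 37° C., then given compounds in a 10-point dilution series (typically 10 μM to 300 pM) for 24 hours at 37° C. Remaining tagged protein was read by HiBiT lytic luminescence, and DC50s came from dose-response curves.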
Background: With HiBiT, luminescence reflects the tagged protein that the partner subunit can reach.

Assay [2] deals with T2, SMARCA4-HiBiT HeLa cells (protein which is expressed from the SMARCA4 gene) (Homo sapiens, UniProt P51532).
T2 construct: protein which is expressed from the SMARCA2 and SMARCA4 genes; host or cells: HeLa (SMARCA4-HiBiT engineered line)
As to the kind of experiment: SMARCA4 degradation assay (HiBiT-fusion HeLa cell line, 24 h, luminescence). The assay is classed as cell-based. The method in brief: as §1

T1 sequence (P51531 whole entry): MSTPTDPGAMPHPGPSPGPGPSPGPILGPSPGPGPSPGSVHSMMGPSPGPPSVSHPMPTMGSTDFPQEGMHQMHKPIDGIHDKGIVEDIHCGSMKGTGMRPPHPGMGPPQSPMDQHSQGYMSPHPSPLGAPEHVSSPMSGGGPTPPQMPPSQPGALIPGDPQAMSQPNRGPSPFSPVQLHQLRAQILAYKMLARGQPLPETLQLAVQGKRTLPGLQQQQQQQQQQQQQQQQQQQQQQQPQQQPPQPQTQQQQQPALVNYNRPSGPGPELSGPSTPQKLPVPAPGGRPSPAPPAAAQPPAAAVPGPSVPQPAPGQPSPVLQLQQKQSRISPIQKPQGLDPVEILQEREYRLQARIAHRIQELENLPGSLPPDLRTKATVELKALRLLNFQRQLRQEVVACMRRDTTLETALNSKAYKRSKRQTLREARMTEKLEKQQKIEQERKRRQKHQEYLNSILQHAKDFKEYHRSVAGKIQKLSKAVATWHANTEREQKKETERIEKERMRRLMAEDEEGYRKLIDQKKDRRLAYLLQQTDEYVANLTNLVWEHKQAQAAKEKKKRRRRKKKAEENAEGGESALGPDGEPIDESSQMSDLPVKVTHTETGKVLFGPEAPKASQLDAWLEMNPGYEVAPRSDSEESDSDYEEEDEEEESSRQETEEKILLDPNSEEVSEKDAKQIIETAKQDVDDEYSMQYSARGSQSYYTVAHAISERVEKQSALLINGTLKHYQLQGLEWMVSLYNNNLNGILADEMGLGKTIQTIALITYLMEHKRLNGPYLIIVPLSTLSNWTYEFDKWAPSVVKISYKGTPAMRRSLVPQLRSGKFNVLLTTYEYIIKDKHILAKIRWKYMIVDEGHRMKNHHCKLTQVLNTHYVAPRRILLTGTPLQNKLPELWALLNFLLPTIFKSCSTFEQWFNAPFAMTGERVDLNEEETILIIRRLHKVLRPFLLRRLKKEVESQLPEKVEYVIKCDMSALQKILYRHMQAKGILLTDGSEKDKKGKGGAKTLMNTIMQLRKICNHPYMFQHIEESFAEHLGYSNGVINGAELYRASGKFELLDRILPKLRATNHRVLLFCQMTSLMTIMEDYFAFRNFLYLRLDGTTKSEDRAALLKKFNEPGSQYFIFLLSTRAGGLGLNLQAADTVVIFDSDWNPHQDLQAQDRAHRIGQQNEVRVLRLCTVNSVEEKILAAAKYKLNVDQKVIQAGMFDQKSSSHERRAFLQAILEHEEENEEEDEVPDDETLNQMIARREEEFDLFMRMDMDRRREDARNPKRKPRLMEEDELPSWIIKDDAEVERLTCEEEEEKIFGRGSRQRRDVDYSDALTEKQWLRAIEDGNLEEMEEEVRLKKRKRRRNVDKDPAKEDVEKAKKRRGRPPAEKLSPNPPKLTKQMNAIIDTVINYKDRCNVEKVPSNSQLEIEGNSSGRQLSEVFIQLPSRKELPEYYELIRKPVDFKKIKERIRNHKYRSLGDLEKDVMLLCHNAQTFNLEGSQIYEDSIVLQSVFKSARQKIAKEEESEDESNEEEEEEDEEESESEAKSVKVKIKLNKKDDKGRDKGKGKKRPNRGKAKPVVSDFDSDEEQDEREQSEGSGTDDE
T2 sequence (P51532 whole entry): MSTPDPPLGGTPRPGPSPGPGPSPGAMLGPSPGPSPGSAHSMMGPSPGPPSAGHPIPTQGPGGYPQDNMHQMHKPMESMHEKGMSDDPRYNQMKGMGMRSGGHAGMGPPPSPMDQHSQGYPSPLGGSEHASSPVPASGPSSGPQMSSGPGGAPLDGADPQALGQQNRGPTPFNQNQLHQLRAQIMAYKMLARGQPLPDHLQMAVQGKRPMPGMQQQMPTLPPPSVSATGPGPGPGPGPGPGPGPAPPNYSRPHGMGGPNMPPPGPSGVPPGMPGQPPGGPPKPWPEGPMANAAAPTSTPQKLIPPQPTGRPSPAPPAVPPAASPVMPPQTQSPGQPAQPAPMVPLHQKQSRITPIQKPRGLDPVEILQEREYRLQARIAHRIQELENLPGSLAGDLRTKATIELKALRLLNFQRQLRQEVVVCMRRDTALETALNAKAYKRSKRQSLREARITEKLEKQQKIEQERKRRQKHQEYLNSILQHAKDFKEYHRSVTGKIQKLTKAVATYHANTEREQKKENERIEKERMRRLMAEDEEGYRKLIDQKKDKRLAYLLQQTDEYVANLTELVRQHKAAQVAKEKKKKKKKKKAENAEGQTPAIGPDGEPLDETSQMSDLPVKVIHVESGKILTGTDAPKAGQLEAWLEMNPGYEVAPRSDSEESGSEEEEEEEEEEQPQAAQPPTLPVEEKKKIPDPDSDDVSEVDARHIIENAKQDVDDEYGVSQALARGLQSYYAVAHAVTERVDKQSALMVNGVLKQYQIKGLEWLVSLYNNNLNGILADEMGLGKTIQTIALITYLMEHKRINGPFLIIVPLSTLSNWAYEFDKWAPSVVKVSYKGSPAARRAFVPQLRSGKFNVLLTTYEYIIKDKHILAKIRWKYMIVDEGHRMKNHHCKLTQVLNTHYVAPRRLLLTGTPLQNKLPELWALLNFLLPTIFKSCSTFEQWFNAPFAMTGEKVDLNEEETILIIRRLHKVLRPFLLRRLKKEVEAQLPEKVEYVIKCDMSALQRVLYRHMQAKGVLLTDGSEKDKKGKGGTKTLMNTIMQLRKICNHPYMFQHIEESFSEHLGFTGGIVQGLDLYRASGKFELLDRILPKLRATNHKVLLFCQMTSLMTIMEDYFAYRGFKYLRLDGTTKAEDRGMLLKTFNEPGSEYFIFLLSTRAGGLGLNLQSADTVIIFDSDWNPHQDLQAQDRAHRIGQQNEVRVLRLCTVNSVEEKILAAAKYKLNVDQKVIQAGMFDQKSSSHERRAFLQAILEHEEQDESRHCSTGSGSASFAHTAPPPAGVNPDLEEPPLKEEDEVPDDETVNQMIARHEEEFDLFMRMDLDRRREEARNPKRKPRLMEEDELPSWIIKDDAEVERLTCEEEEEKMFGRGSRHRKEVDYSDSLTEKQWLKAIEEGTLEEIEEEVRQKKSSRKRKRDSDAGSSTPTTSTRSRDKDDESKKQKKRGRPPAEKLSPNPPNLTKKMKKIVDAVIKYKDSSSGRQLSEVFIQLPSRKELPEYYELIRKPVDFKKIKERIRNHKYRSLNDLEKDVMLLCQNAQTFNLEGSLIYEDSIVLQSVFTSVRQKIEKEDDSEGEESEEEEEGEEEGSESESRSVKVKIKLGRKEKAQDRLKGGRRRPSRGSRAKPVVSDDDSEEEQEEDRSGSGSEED

A word on the DC50: it is the midpoint of the concentration-degradation curve. Lower therefore signals degradation at low concentration. The term inhibition denotes the relative decrease from the control value, in per cent. Read a high inhibition as a strong effect. Take `Nc1nnc(-c2ccccc2O)cc1N1CCCN(c2ccnc(C#CCN3CCCC3=O)n2)CC1` [Compound P-372, 1-[3-(4-{4-[3-amino-6-(o-hydroxyphenyl)-4-pyridaziny1]-1,4-diazepan-1-y1}-2-pyrimidinyl)-2-propynyl]-2-pyrrolidinone]: in assay [1], the 50% degradation concentration (DC50) fell in the range of 50 to 500 nM and the “SMARCA2 % Degradation @ 1 μM” value is on record as “+++ (+++=>70%)”. In assay [2], the DC50 is 50 to 500 nM and the inhibition at 1 µM fell in the range of 30 to 70%.

As for `CC(C)(C)OC(=O)N1CCCC1C#Cc1nccc(N2CCCN(c3cc(-c4ccccc4O)nnc3N)CC2)n1` (centres unmarked) [Compound P-348, tert-butyl 2-[2-(4-{4-[3-amino-6-(o-hydroxyphenyl)-4-pyridazinyl]-1,4-diazepan-1-y1}-2-pyrimidinyl)ethynyl]-1-pyrrolidinecarboxylate], in assay [1], the DC50 is 50 to 500 nM and the “SMARCA2 % Degradation @ 1 μM” value is given as “+++ (+++=>70%)”. Moreover, in assay [2], the DC50 fell in the range of 50 to 500 nM and the inhibition at 1 µM was more than 70%.

`Nc1nnc(-c2ccccc2O)cc1N1C[C@H]2C[C@@H]1CN2c1ccnc(C#CCN2CCCCC2)n1` [Compound P-285, 0-(5-{(1R,4R)-5-[2-(3-piperidino-1-propynyl)-4-pyrimidinyl]-2,5-diazabicyclo[2.2.1]hept-2-y1}-6-amino-3-pyridazinyl)phenol]: in assay [1], the DC50 was less than 50 nM and the “SMARCA2 % Degradation @ 1 μM” value is on record as “++ (++=30-70%)”. For the same compound, in assay [2], the DC50 was less than 50 nM and the inhibition at 1 µM was less than 30%.

As for `Nc1nnc(-c2ccccc2O)cc1N1CCC2C1CCCN2c1ccnc(C#CCNC(=O)c2cc3ncccn3n2)n1` (centres unmarked) [Compound P-38, N-(3-(4-(1-(3-amino-6-(2-hydroxyphenyl)pyridazin-4-yl)octahydro-4H-pyrrolo[3,2-b]pyridin-4-yl)pyrimidin-2-yl)prop-2-yn-1-yl)pyrazolo[1,5-a]pyrimidine-2-carboxamide], in assay [1], the DC50 is 500 to 5000 nM and the “SMARCA2 % Degradation @ 1 μM” value is “+ (+=<30%)”. Further, in assay [2], the 50% degradation concentration (DC50) lay within 500 to 5000 nM and the inhibition at 1 µM was less than 30%.

As to `C[C@@H]1CCN(c2cc(-c3ccccc3O)nnc2N)CCN1c1ccnc(C#CCNC(=O)OC2CC/C=C\CCC2)n1` (stereo partly drawn) [Compound P-268, 4-[(R)-4-(2-{3-[(Z)-4-cycloocten-1-yloxycarbonylamino]-1-propynyl}-4-pyrimidinyl)-5-methyl-1,4-diazepan-1-yl]-6-(o-hydroxyphenyl)-3-pyridazinamine], in assay [1], the DC50 was in the range of 50 to 500 nM and the “SMARCA2 % Degradation @ 1 μM” value is reported as “+++ (+++=>70%)”. In assay [2], this compound gave a DC50 of 50 to 500 nM and an inhibition at 1 µM of 30 to 70%.

On to `CN(C)CC#Cc1ncc(F)c(N2C3CCC2CN(c2cc(-c4ccccc4O)nnc2N)C3)n1` [Compound P-225, o-[6-amino-5-(8-{2-[3-(dimethylamino)-1-propynyl]-5-fluoro-4-pyrimidinyl}-3,8-diazabicyclo[3.2.1]oct-3-yl)-3-pyridazinyl]phenol], for which, in assay [1], the DC50 was less than 50 nM and the “SMARCA2 % Degradation @ 1 μM” value is reported as “++ (++=30-70%)”. In assay [2], this compound yielded a half-maximal degradation concentration (DC50) of less than 50 nM and an inhibition at 1 µM of 30 to 70%.

Regarding `COC/C=C/c1nccc(N2CCCN(c3cc(-c4ccccc4O)nnc3N)CC2)n1` [Compound P-159, o-(6-amino-5-{4-[2-(3-methoxy-1-propenyl)-4-pyrimidinyl]-1,4-diazepan-1-yl}-3-pyridazinyl)phenol], in assay [1], the DC50 fell in the range of 50 to 500 nM and the “SMARCA2 % Degradation @ 1 μM” value is reported as “+++ (+++=>70%)”. In assay [2], the DC50 was in the range of 50 to 500 nM and the inhibition at 1 µM lay within 30 to 70%.

Turning to `Nc1nnc(-c2ccccc2O)cc1N1CCCN(c2ccnc(C#CCCNC(=O)c3cc4ncccn4n3)n2)CC1` [Compound P-23, N-(4-(4-(4-(3-amino-6-(2-hydroxyphenyl)pyridazin-4-yl)-1,4-diazepan-1-yl)pyrimidin-2-yl)but-3-yn-1-yl)pyrazolo[1,5-a]pyrimidine-2-carboxamide], in assay [1], the DC50 was 50 to 500 nM and the “SMARCA2 % Degradation @ 1 μM” value is “++ (++=30-70%)”. In assay [2], the DC50 lay within 50 to 500 nM and the inhibition at 1 µM lay within 30 to 70%.

Turning to `CC(C)(C)OC(=O)N1C2CCC1CN(CC#Cc1nccc(N3CCCN(c4cc(-c5ccccc5O)nnc4N)CC3)n1)C2` [Compound P-358, tert-butyl 3-[3-(4-{4-[3-amino-6-(o-hydroxyphenyl)-4-pyridazinyl]-1,4-diazepan-1-y1}-2-pyrimidinyl)-2-propynyl]-3,8-diazabicyclo[3.2.1]octane-8-carboxylate], in assay [1], the DC50 lay in the range of 500 to 5000 nM and the “SMARCA2 % Degradation @ 1 μM” value is given as “++ (++=30-70%)”. Moreover, in assay [2], the DC50 lay within 500 to 5000 nM and the inhibition at 1 µM fell in the range of 30 to 70%.

As to `C[C@@H]1CCN(c2cc(-c3ccccc3O)nnc2N)CCN1c1ccnc(C#CCN2C3CCCC2CC3)n1` [Compound P-228, o-{5-[(R)-4-(2-{3-(8-azabicyclo[3.2.1]oct-8-yl)-1-propynyl}-4-pyrimidinyl)-5-methyl-1,4-diazepan-1-y1]-6-amino-3-pyridazinyl}phenol], in assay [1], the DC50 is less than 50 nM and the “SMARCA2 % Degradation @ 1 μM” value is given as “++ (++=30-70%)”. In assay [2], this compound returned a DC50 of less than 50 nM and an inhibition at 1 µM of 30 to 70%.

On to `C[C@@H]1CCN(c2cc(-c3ccccc3O)nnc2N)CCN1c1nc(C#CCN2C(=O)CC[C@@H]2C)ncc1F` [Compound P-176, (S)-1-[3-(4-{(R)-4-[3-amino-6-(o-hydroxyphenyl)-4-pyridazinyl]-7-methyl-1,4-diazepan-1-yl}-5-fluoro-2-pyrimidinyl)-2-propynyl]-5-methyl-2-pyrrolidinone], for which, in assay [1], the DC50 is 50 to 500 nM and the “SMARCA2 % Degradation @ 1 μM” value is reported as “++ (++=30-70%)”. For the same compound, in assay [2], the DC50 fell in the range of 50 to 500 nM and the inhibition at 1 µM was 30 to 70%.

On to `Nc1nnc(-c2ccccc2O)cc1N1CCCN(c2ccnc(C#CCO)n2)CC1` [Compound P-125, 2-(6-amino-5-(4-(2-(3-hydroxyprop-1-yn-1-yl)pyrimidin-4-yl)-1,4-diazepan-1-yl)pyridazin-3-yl)phenol], for which, in assay [1], the DC50 was 50 to 500 nM and the “SMARCA2 % Degradation @ 1 μM” value is listed as “++ (++=30-70%)”. In assay [2], this compound showed a DC50 of 50 to 500 nM and an inhibition at 1 µM of 30 to 70%.

With `CC1(C)COCCN1CC#Cc1nccc(N2CCCN(c3cc(-c4ccccc4O)nnc3N)CC2)n1` [Compound P-317, 0-[6-amino-5-(4-{2-[3-(3,3-dimethyl-4-morpholinyl)-1-propynyl]-4-pyrimidinyl}-1,4-diazepan-1-yl)-3-pyridazinyl]phenol], in assay [1], the DC50 was in the range of 50 to 500 nM and the “SMARCA2 % Degradation @ 1 μM” value is “++ (++=30-70%)”. In assay [2], this compound yielded a DC50 of 500 to 5000 nM and an inhibition at 1 µM of less than 30%.

With `Nc1nnc(-c2ccccc2O)cc1N1CCN(c2ccnc(C#CCNC(=O)c3cc4ccccc4o3)n2)CC1` [Compound P-75, N-(3-(4-(4-(3-amino-6-(2-hydroxyphenyl)pyridazin-4-yl)piperazin-1-yl)pyrimidin-2-yl)prop-2-yn-1-yl)benzofuran-2-carboxamide], in assay [1], the DC50 lay within 50 to 500 nM and the “SMARCA2 % Degradation @ 1 μM” value is “++ (++=30-70%)”. In assay [2], this compound displayed a DC50 of less than 50 nM and an inhibition at 1 µM of 30 to 70%.

Regarding `Nc1nnc(-c2ccccc2O)cc1-c1cnn(C2CN(c3ccnc(C#CCn4ccnc4)n3)C2)c1` [Compound P-212, o-{6-amino-5-[1-(1-{2-[3-(1-imidazolyl)-1-propynyl]-4-pyrimidinyl}-3-azetidinyl)-4-pyrazolyl]-3-pyridazinyl} phenol], in assay [1], the DC50 is 50 to 500 nM and the “SMARCA2 % Degradation @ 1 μM” value was “++ (++=30-70%)”. In assay [2], this compound came in with a DC50 of 50 to 500 nM and an inhibition at 1 µM of 30 to 70%.

As for `N#CCNCC#Cc1nccc(N2CCCN(c3cc(-c4ccccc4O)nnc3N)CC2)n1` [Compound P-255, [3-(4-{4-[3-amino-6-(o-hydroxyphenyl)-4-pyridaziny1]-1,4-diazepan-1-yl}-2-pyrimidinyl)-2-propynylamino]acetonitrile], in assay [1], the DC50 is 50 to 500 nM and the “SMARCA2 % Degradation @ 1 μM” value is listed as “++ (++=30-70%)”. Also, in assay [2], the DC50 lay within 50 to 500 nM and the inhibition at 1 µM was 30 to 70%.

As to `C[C@@H]1CCN(c2cc(-c3ccccc3O)nnc2N)CCN1c1ccnc(C#CCn2cncn2)n1` [Compound P-333, 0-{5-[(R)-5-methyl-4-{2-[3-(1H-1,2,4-triazol-1-yl)-1-propynyl]-4-pyrimidinyl}-1,4-diazepan-1-y1]-6-amino-3-pyridazinyl} phenol], in assay [1], the DC50 was in the range of 50 to 500 nM and the “SMARCA2 % Degradation @ 1 μM” value was “++ (++=30-70%)”. In assay [2], this compound gave a DC50 of 50 to 500 nM and an inhibition at 1 µM of less than 30%.

Turning to `Nc1nnc(-c2ccccc2O)cc1OC1CC2CN(c3ccnc(C#CCN4CCOCC4)n3)CC2C1` (centres unmarked) [Compound P-220, o-(6-amino-5-{3-[2-(3-morpholino-1-propynyl)-4-pyrimidinyl]-3-azabicyclo[3.3.0]oct-7-yloxy}-3-pyridazinyl)phenol], in assay [1], the DC50 was in the range of 50 to 500 nM and the “SMARCA2 % Degradation @ 1 μM” value was “+++ (+++=>70%)”. In assay [2], the 50% degradation concentration (DC50) lay within 50 to 500 nM and the inhibition at 1 µM is 30 to 70%.

As for `Nc1nnc(-c2ccccc2O)cc1N1CC2CCC(C1)N2c1ccnc(C#CCn2ccnc2)n1` [Compound P-290], in assay [1], the DC50 lay within 50 to 500 nM and the “SMARCA2 % Degradation @ 1 μM” value was “++ (++=30-70%)”. In assay [2], this compound returned a DC50 of 50 to 500 nM and an inhibition at 1 µM of less than 30%.

With `C[C@@H]1CN(c2ccnc(C#CCNC(=O)c3cc4ncccn4n3)n2)CCN1c1cc(-c2ccccc2O)nnc1N` [Compound P-49, (R)-N-(3-(4-(4-(3-amino-6-(2-hydroxyphenyl)pyridazin-4-yl)-3-methylpiperazin-1-yl)pyrimidin-2-yl)prop-2-yn-1-yl)pyrazolo[1,5-a]pyrimidine-2-carboxamide], in assay [1], the DC50 is more than 5000 nM and the “SMARCA2 % Degradation @ 1 μM” value is listed as “+ (+=<30%)”. In addition, in assay [2], the DC50 lay within 500 to 5000 nM and the inhibition at 1 µM was less than 30%.
